This passage reports MIC results from DBAASP.

Values after ≈ are worked out from the molar mass of the structure shown.

Some test systems named below: Cryptococcus neoformans; Streptococcus pneumoniae; Candida albicans; Salmonella typhimurium; Saccharomyces cerevisiae; Serratia marcescens; Streptococcus mutans; Bacillus subtilis; Staphylococcus aureus; Pseudomonas putida; Escherichia coli; Escherichia coli BW25113; Escherichia coli UB1005.
Assay in all cases: ≥ marks a high value that may be exact or a test limit, other limits are often not marked, values filed in µg/mL are converted to µM
The subject of assay [1] is Enterococcus faecalis CIP 76.117.
Assay [2] concerns Klebsiella pneumoniae ATCC 700603.
Assay [3] has as its system Pseudomonas aeruginosa ATCC 27853.
In assay [4] the test system is Cryptococcus neoformans ATCC 208821.
Assay [5] relates to Acinetobacter baumannii ATCC 19606.
Assay [6] relates to Staphylococcus aureus ATCC 43300.
Assay [7] concerns Candida albicans ATCC 90028.
In assay [8] the test system is Escherichia coli ATCC 25922.
Assay [9] has as its system Staphylococcus aureus ATCC 29213.
In assay [10] the test system is Salmonella enterica subsp. enterica serovar Typhimurium ATCC 14028.
Assay [11] concerns Klebsiella aerogenes ATCC 13048.
In assay [12] the test system is Bacillus cereus ATCC 11778.
The subject of assay [13] is Pseudomonas aeruginosa 910.
In assay [14] the test system is Pseudomonas aeruginosa 919.
Assay [15] deals with Pseudomonas aeruginosa 253.
Assay [16] concerns Pseudomonas aeruginosa PAO1.
The subject of assay [17] is Enterococcus faecalis ATCC 29212.
Assay [18] has as its system Staphylococcus epidermidis.
The subject of assay [19] is Pseudomonas aeruginosa H103.
Assay [20] deals with Salmonella enterica serovar Typhimurium.
The subject of assay [21] is Staphylococcus aureus ATCC 25923.

In assay [1], `CC[C@H](C)[C@H](NC(=O)[C@H](CCC(N)=O)NC(=O)[C@@H]1CCCN1C(=O)[C@H](CC(=O)O)NC(=O)[C@H](Cc1ccccc1)NC(=O)[C@@H](NC(=O)[C@H](Cc1cnc[nH]1)NC(=O)[C@H](Cc1cnc[nH]1)NC(=O)[C@H](Cc1ccccc1)NC(=O)[C@@H](N)Cc1ccccc1)[C@@H](C)CC)C(=O)N[C@@H](CCCCN)C(=O)N[C@@H](CO)C(=O)NCC(=O)N[C@@H](CC(C)C)C(=O)N[C@@H](CC(C)C)C(=O)N[C@H](C(=O)N[C@@H](CO)C(=O)N[C@@H](CCSC)C(=O)N[C@@H](Cc1ccc(O)cc1)C(=O)N[C@@H](CC(=O)O)C(=O)O)C(C)C` [FFHHIFDPQIKSGLLVSMYD] came in with an MIC of at least 122 µM.
Turning to `NCC(=O)N[C@@H](CCCN=C(N)N)C(=O)N[C@@H](CCCN=C(N)N)C(=O)NCC(=O)NCC(=O)N[C@@H](CCCN=C(N)N)C(=O)NCC(=O)NCC(=O)N[C@@H](CCCN=C(N)N)C(=O)NCC(=O)N[C@@H](CCCN=C(N)N)C(=O)NCC(=O)N[C@@H](CCCN=C(N)N)C(=O)O` [GRRGGRGGRGRGR], the minimum inhibitory concentration (MIC) in [2] is over 23.6 µM; in [3] it was over 23.6 µM; in assay [4], 23.6 µM (≈ 32 µg/mL); in assay [5], over 23.6 µM; in assay [6] it was over 23.6 µM; in assay [7], 23.6 µM (≈ 32 µg/mL). Moreover, in [8], the minimum inhibitory concentration (MIC) was over 23.6 µM.
Take `CC[C@H](C)[C@H](N)C(=O)N[C@@H](CC(C)C)C(=O)NCC(=O)N[C@@H](C)C(=O)N[C@@H](C)C(=O)N[C@@H](Cc1c[nH]c2ccccc12)C(=O)N[C@@H](CC(N)=O)C(=O)NCC(=O)N[C@@H](C)C(=O)N[C@@H](CCCCN)C(=O)N[C@@H](CO)C(=O)N[C@@H](CC(C)C)C(=O)N[C@@H](Cc1ccccc1)C(N)=O` [ILGAAWNGAKSLF]: the MIC in assay [9] was over 74.2 µM; in assay [10], over 74.2 µM; in assay [11], at least 74.2 µM; in [12] it was at least 74.2 µM; in [8] it was over 74.2 µM.
For `CC[C@H](C)[C@H](N)C(=O)N[C@@H](CC(C)C)C(=O)N[C@@H](CCCCN)C(=O)N[C@@H](Cc1c[nH]c2ccccc12)C(=O)N[C@@H](CCCCN)C(=O)N[C@H](C(=O)N[C@@H](Cc1ccccc1)C(=O)N[C@@H](CCCCN)C(=O)N[C@@H](Cc1c[nH]c2ccccc12)C(=O)N[C@@H](CCCCN)C(=O)N[C@@H](Cc1c[nH]c2ccccc12)C(=O)N[C@@H](Cc1ccccc1)C(=O)N[C@@H](CCCN=C(N)N)C(N)=O)[C@@H](C)CC` [ILKWKIFKWKWFR], the minimum inhibitory concentration (MIC) in [13] is 4 µM (≈ 7.51 µg/mL); in [14] it was at least 32 µM; in [15], 11.3 µM (≈ 21.3 µg/mL); in [16], 2 µM (≈ 3.76 µg/mL).
For the molecule `CC(C)C[C@H](NC(=O)[C@H](CC(C)C)NC(=O)[C@H](CCCN=C(N)N)NC(=O)[C@H](Cc1cnc[nH]1)NC(=O)[C@@H](NC(=O)[C@H](CCCN=C(N)N)NC(=O)CNC(=O)[C@@H](NC(=O)[C@@H]1CCCN1)C(C)C)C(C)C)C(=O)N[C@@H](CCCN=C(N)N)C(=O)N[C@@H](CCCCN)C(=O)O` [PVGRVHRLLRK], the MIC was at least 96.2 µM in the assay with Cryptococcus neoformans; at least 48.1 µM against Streptococcus pneumoniae; 48.1 µM (≈ 64 µg/mL) against Candida albicans; 24 µM (≈ 32 µg/mL) in the assay on Salmonella typhimurium; at least 96.2 µM with Saccharomyces cerevisiae; at least 48.1 µM in the assay on Serratia marcescens. In addition, the MIC is 24 µM (≈ 32 µg/mL) in the assay with Streptococcus mutans; 24 µM (≈ 32 µg/mL) in the assay on Bacillus subtilis; 48.1 µM (≈ 64 µg/mL) against Staphylococcus aureus; at least 48.1 µM with Pseudomonas putida; 24 µM (≈ 32 µg/mL) against Escherichia coli.
In the assay with Escherichia coli BW25113, `CC[C@H](C)[C@H](NC(=O)[C@@H]1CCCN1C(=O)[C@H](Cc1c[nH]c2ccccc12)NC(=O)[C@H](CCCN=C(N)N)NC(=O)[C@H](Cc1ccccc1)NC(=O)[C@@H](N)CCCN=C(N)N)C(=O)N[C@@H](CCCN=C(N)N)C(=O)N[C@@H](CCCN=C(N)N)C(=O)N[C@@H](CCCN=C(N)N)C(=O)N1CCC[C@H]1C(=O)N[C@H](C(=O)N[C@@H](CCCN=C(N)N)C(=O)N1CCC[C@H]1C(=O)N1CCC[C@H]1C(=O)N[C@@H](Cc1c[nH]c2ccccc12)C(=O)N[C@@H](Cc1ccc(O)cc1)C(=O)N[C@@H](CCCN=C(N)N)C(=O)O)[C@@H](C)CC` [RFRWPIRRRPIRPPWYR] came in with a minimal inhibitory concentration (MIC) of 4 µM (≈ 9.64 µg/mL).
On to `CC[C@H](C)[C@H](NC(=O)[C@H](CCCN=C(N)N)NC(=O)[C@H](C)NC(=O)CNC(=O)[C@@H](N)CCCN=C(N)N)C(=O)N[C@H](C(=O)N[C@H](C(=O)N[C@H](C(=O)N[C@@H](CCCN=C(N)N)C(=O)N[C@H](C(=O)N[C@@H](C)C(=O)N[C@@H](CCCN=C(N)N)C(N)=O)C(C)C)[C@@H](C)CC)C(C)C)C(C)C` [RGARIVVIRVAR], for which the minimum inhibitory concentration (MIC) is at least 32 µM in assay [13]; 22.7 µM (≈ 31 µg/mL) in assay [17]; 11.7 µM (≈ 16 µg/mL) against Candida albicans; 11.7 µM (≈ 16 µg/mL) in [18]; 22.7 µM (≈ 31 µg/mL) in assay [19]; 16 µM (≈ 21.8 µg/mL) in assay [14]. Besides, the MIC against Escherichia coli UB1005 was 5.86 µM (≈ 7.99 µg/mL); in assay [20] it was 22.7 µM (≈ 31 µg/mL); in assay [21] it was 22.7 µM (≈ 31 µg/mL); in assay [15], at least 32 µM; in assay [16], 32 µM (≈ 43.7 µg/mL).
`CC[C@H](C)[C@H](NC(=O)[C@@H]1CCCN1C(=O)[C@@H]1CCCN1C(=O)[C@H](CCCN=C(N)N)NC(=O)[C@H](Cc1c[nH]c2ccccc12)NC(=O)[C@@H](N)CCCN=C(N)N)C(=O)N[C@@H](CCCN=C(N)N)C(=O)N[C@@H](CCCN=C(N)N)C(=O)N1CCC[C@H]1C(=O)N1CCC[C@H]1C(=O)N[C@H](C(=O)N[C@@H](CCCN=C(N)N)C(=O)N1CCC[C@H]1C(=O)N1CCC[C@H]1C(=O)N[C@@H](Cc1ccccc1)C(=O)N[C@@H](Cc1ccc(O)cc1)C(=O)N1CCC[C@H]1C(=O)O)[C@@H](C)CC` [RWRPPIRRPPIRPPFYP] returned an MIC in the assay with Escherichia coli BW25113 of 16 µM (≈ 35.2 µg/mL).
As for `NC(=O)CC[C@H](NC(=O)[C@H](Cc1cnc[nH]1)NC(=O)[C@H](CO)NC(=O)[C@H](CCCN=C(N)N)NC(=O)[C@H](Cc1ccccc1)NC(=O)[C@H](Cc1cnc[nH]1)NC(=O)[C@H](CCCN=C(N)N)NC(=O)[C@H](Cc1cnc[nH]1)NC(=O)[C@H](Cc1cnc[nH]1)NC(=O)[C@@H](N)CO)C(=O)N[C@@H](CS)C(=O)N[C@@H](CCCN=C(N)N)C(=O)O` [SHHRHFRSHQCR], the MIC in [2] is over 20.2 µM; in assay [3], over 20.2 µM; in assay [4] it was 20.2 µM (≈ 32 µg/mL); in [5] it was over 20.2 µM; in assay [6], over 20.2 µM; in assay [7], 20.2 µM (≈ 32 µg/mL). The same molecule had an MIC in assay [8] of over 20.2 µM.

The term MIC denotes the lowest concentration that inhibits growth of the organism. Low readings indicate a more susceptible organism, high ones a less susceptible organism.
